Tested on: N. fowleri strain Nf69 (ATCC 30215) trophozoites
Test: Determination of EC50 values against Naegleria fowleri (growth inhibition, CellTiter Glo, 48 h)
Type: cell-based
Details: ATCC30215, N. fowleri Nf69 trophozoites, 48 h culture, 37° C., CellTiter Glo luminescence, read-out: EC50 uM against N. fowleri
Procedure, shortened: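 Axenic Nf69 trophozoites in Nelson's complete medium with 10% FBS exposed to compound, initially 20–0.375 μM, for 48 h at 37 °C, 5% CO2. Viability read by CellTiter-Glo luminescence; % growth inhibition versus controls, triplicate averages fitted for EC50, with lower ranges used for very potent compounds.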

Row | SMILES | EC50
1 | CN1CCC[C@H]2c3nc4cc(Cl)c(Cl)cc4c(=O)n3CC[C@H]21 (racemic) [cis-5q, (±)-(4aR,13bR)-10,11-dichloro-4-methyl-1,2,3,4,4a,5,6,13b-octahydro-8H-[1,6]naphthyridino[5,6-b]quinazolin-8-one] | 0.1 to 1 µM
2 | Cc1ccc(-c2ccc3nc4n(c(=O)c3c2)CC[C@@H]2[C@@H]4CCCN2C)cn1 (racemic) [trans-9a, (±)-(4aR,13bS)-4-methyl-10-(6-methylpyridin-3-yl)-1,2,3,4,4a,5,6,13b-octahydro-8H-[1,6]naphthyridino[5,6-b]quinazolin-8-one] | > 10 µM
3 | CN1CCC[C@H]2c3nc4cc(Cl)c(C(F)(F)F)cc4c(=O)n3CC[C@H]21 (racemic) [cis-5s, (±)-(4aR,13bR)-11-chloro-4-methyl-10-(trifluoromethyl)-1,2,3,4,4a,5,6,13b-octahydro-8H-[1,6]naphthyridino[5,6-b]quinazolin-8-one] | 0.1 to 1 µM
4 | Cc1ccc2nc3n(c(=O)c2c1)CC[C@@H]1[C@@H]3CCCN1C (racemic) [trans-5h, (±)-(4aR,13bS)-4,10-dimethyl-1,2,3,4,4a,5,6,13b-octahydro-8H-[1,6]naphthyridino[5,6-b]quinazolin-8-one] | 1 to 10 µM
5 | CN1CCC[C@H]2c3nc4ccc(Cl)cc4c(=O)n3CC[C@H]21 (racemic) [cis-5d, (±)-(4aR,13bR)-10-chloro-4-methyl-1,2,3,4,4a,5,6,13b-octahydro-8H-[1,6]naphthyridino[5,6-b]quinazolin-8-one] | 1 to 10 µM
6 | COc1ccc2c(=O)n3c(nc2c1)[C@@H]1CCCN(C)[C@@H]1CC3 (racemic) [cis-50, (±)-(4aR,13bR)-11-methoxy-4-methyl-1,2,3,4,4a,5,6,13b-octahydro-8H-[1,6]naphthyridino[5,6-b]quinazolin-8-one] | 1 to 10 µM
7 | CN1CCC[C@@H]2c3nc4cnccc4c(=O)n3CC[C@H]21 (racemic) [trans-5p, (±)-(4aR,13bS)-4-methyl-1,2,3,4,4a,5,6,13b-octahydro-8H-pyrido[3′,4′:4,5]pyrimido[2,1-f][1,6]naphthyridin-8-one] | > 10 µM
8 | CN1CCC[C@@H]2c3nc4cc(Cl)c(C(F)(F)F)cc4c(=O)n3CC[C@H]21 (racemic) [trans-5s, (±)-(4aR,13bS)-11-chloro-4-methyl-10-(trifluoromethyl)-1,2,3,4,4a,5,6,13b-octahydro-8H-[1,6]naphthyridino[5,6-b]quinazolin-8-one] | 0.1 to 1 µM
9 | Cc1cccc(CN2CCC[C@@H]3c4nc5cc(Cl)c(Cl)cc5c(=O)n4CC[C@H]32)n1 (racemic) [trans-7p, (±)-(4aR,13bS)-10,11-dichloro-4-((6-methylpyridin-2-yl)methyl)-1,2,3,4,4a,5,6,13b-octahydro-8H-[1,6]naphthyridino[5,6-b]quinazolin-8-one] | 0.1 to 1 µM
10 | COc1cc(CN2CCC[C@@H]3c4nc5cc(Cl)c(Cl)cc5c(=O)n4CC[C@H]32)cc(OC)c1 (racemic) [trans-7n, (±)-(4aR,13bS)-10,11-dichloro-4-(3,5-dimethoxybenzyl)-1,2,3,4,4a,5,6,13b-octahydro-8H-[1,6]naphthyridino[5,6-b]quinazolin-8-one] | 0.0001 to 0.1 µM
11 | CN1CCO[C@H]2c3nc4ccccc4c(=O)n3CC[C@H]21 (racemic) [cis-5v, (±)-(4aR,13bR)-4-methyl-3,4,4a,5,6,13b-hexahydro-[1,4]oxazino[2′,3′:3,4]pyrido[2,1-b]quinazolin-8(2H)-one] | > 10 µM
12 | CN1CCC[C@@H]2c3nc4ccccc4c(=O)n3CC[C@H]21 (racemic) [trans-5a, (±)-(4aR,13bS)-4-methyl-1,2,3,4,4a,5,6,13b-octahydro-8H-[1,6]naphthyridino[5,6-b]quinazolin-8-one] | > 10 µM
13 | COc1cc2nc3n(c(=O)c2cc1OC)CC[C@@H]1[C@@H]3CCCN1C (racemic) [trans-5r, (±)-(4aR,13bS)-10,11-dimethoxy-4-methyl-1,2,3,4,4a,5,6,13b-octahydro-8H-[1,6]naphthyridino[5,6-b]quinazolin-8-one] | > 10 µM
14 | CN1CCC[C@H]2c3nc4cccc(Cl)c4c(=O)n3CC[C@H]21 (racemic) [cis-5c, (±)-(4aR,13bR)-9-chloro-4-methyl-1,2,3,4,4a,5,6,13b-octahydro-8H-[1,6]naphthyridino[5,6-b]quinazolin-8-one] | > 10 µM
15 | O=C(c1ccccc1)N1CCC[C@@H]2c3nc4cc(Cl)c(Cl)cc4c(=O)n3CC[C@H]21 (racemic) [trans-7h, (±)-(4aR,13bS)-4-benzoyl-10,11-dichloro-1,2,3,4,4a,5,6,13b-octahydro-8H-[1,6]naphthyridino[5,6-b]quinazolin-8-one] | > 10 µM
16 | O=C(C1CCOCC1)N1CCC[C@@H]2c3nc4cc(Cl)c(Cl)cc4c(=O)n3CC[C@H]21 (racemic) [trans-7e, (±)-(4aR,13bS)-10,11-dichloro-4-(tetrahydro-2H-pyran-4-carbonyl)-1,2,3,4,4a,5,6,13b-octahydro-8H-[1,6]naphthyridino[5,6-b]quinazolin-8-one] | > 10 µM
17 | O=c1c2cc(Cl)c(Cl)cc2nc2n1CC[C@@H]1[C@@H]2CCCN1CCN1CCOCC1 (racemic) [trans-7y, (±)-(4aR,13bS)-10,11-dichloro-4-(2-morpholinoethyl)-1,2,3,4,4a,5,6,13b-octahydro-8H-[1,6]naphthyridino[5,6-b]quinazolin-8-one] | 0.0001 to 0.1 µM
18 | CN1CCC[C@@H]2c3nc4cc(C(F)(F)F)ccc4c(=O)n3CC[C@H]21 (racemic) [trans-5n, (±)-(4aR,13bS)-4-methyl-11-(trifluoromethyl)-1,2,3,4,4a,5,6,13b-octahydro-8H-[1,6]naphthyridino[5,6-b]quinazolin-8-one] | 0.1 to 1 µM

Other lines, results leading:

Row | EC50 | SMILES
19 | > 10 µM | Cn1c([C@@H]2CCCN(Cc3ccncc3)C2)nc2cc(Cl)c(Cl)cc2c1=O [Compound R-14u, (R)-6,7-dichloro-3-methyl-2-(1-(pyridin-4-ylmethyl)piperidin-3-yl)quinazolin-4(3H)-one]
20 | > 10 µM | O=c1c2cc(Cl)c(Cl)cc2nc2n1CC[C@@H]1[C@@H]2CCCN1Cc1ccc(C(F)(F)F)cc1 (racemic) [Compound 7u, (±)-(4aR,13bS)-10,11-dichloro-4-(4-(trifluoromethyl)benzyl)-1,2,3,4,4a,5,6,13b-octahydro-8H-[1,6]naphthyridino[5,6-b]quinazolin-8-one]
21 | > 10 µM | Cn1c([C@@H]2CCCN(Cc3ccccn3)C2)nc2cc(Cl)c(Cl)cc2c1=O [Compound R-14w, (R)-6,7-dichloro-3-methyl-2-(1-(pyridin-2-ylmethyl)piperidin-3-yl)quinazolin-4(3H)-one]
22 | > 10 µM | Cn1c([C@H]2CCCN(CCO)C2)nc2cc(Cl)c(Cl)cc2c1=O [Compound S-14y, (S)-6,7-dichloro-2-(1-(2-hydroxyethyl)piperidin-3-yl)-3-methylquinazolin-4(3H)-one]
23 | > 10 µM | Cn1c([C@@H]2CCCN(CC3COC3)C2)nc2ccc(C#N)cc2c1=O [Compound R-14o, (R)-3-methyl-2-(1-(oxetan-3-ylmethyl)piperidin-3-yl)-4-oxo-3,4-dihydroquinazoline-6-carbonitrile]
24 | > 10 µM | Cn1c([C@H]2CCCN(CC3CCOCC3)C2)nc2cc(Cl)c(Cl)cc2c1=O [Compound S-14c, (S)-6,7-dichloro-3-methyl-2-(1-((tetrahydro-2H-pyran-4-yl)methyl)piperidin-3-yl)quinazolin-4(3H)-one]
